# Patent US20240065303A1, “BITTER MASKING AGENT” (SOLUGEN, INC., priority 2020, published 2024)
# Assays:
# Type in all cases: in vivo
# [1] = trained-panel taste test of caffeine solutions with and without sodium gluconate (dose response)
# Method: The effect of sodium gluconate on bitterness as a dose response was investigated, In a blind study, six (6) trained panelists conducted a taste test with caffeine samples. […] Caffeine solutions with and without sodium gluconate were prepared on a w/v basis with deionized water. Products were dispensed into lidded soufflé cups with 3-digit codes and evaluated at 21° C. Products were evaluated in duplicate by 6 trained panelists for bitter taste amelioration following the study by Leksrisompong et al. (2012).
# [2] = blind taste panel: which coffee tasted less bitter; details: Coffee 2 = 0.5 grams of sodium gluconate added to a 200 g coffee; blind study, panel of 8 individuals; FIG. 1
# Method: The ability of a BMA to reduce the bitterness of a coffee product was investigated. Specifically, varying amounts of a BMA according to aspects described herein was added to coffee samples. In a blind study, a panel of 8 individuals were asked to determine which coffee tasted less bitter. […] Coffee 2 had 0.5 grams of sodium gluconate added to a 200 g coffee.
# In a blind study, a panel of 8 individuals were asked to determine which coffee tasted less bitter. […] Coffee 2 had 0.5 grams of sodium gluconate added to a 200 g coffee.
# [3] = blind tasting of chocolate chip cookies baked with sugar substitutes, with and without sodium gluconate; details: ½ tsp of sodium gluconate for every cup of erythritol; 5 people, blind sampled
# Description: The level of sodium gluconate on bitterness reduction in baked goods was investigated. Using a commercially available recipe of chocolate chip cookies, a batch of cookies were baked and blind sampled. The batches were baked using the recipe (i) 2 sticks unsalted butter, at room temperature; (ii) 1 cup erythritol or 1 cup monk fruit sugar substitute or ½ cup stevia sugar substitute; (iii) for samples with sodium gluconate, ½ tsp of sodium gluconate was used for every cup of erythritol; (iv) 1¼ egg; (v) 1⅓ cup almond flour; (vi) 2 tsp vanilla extract; (vii) 1¼ tsp sea salt; (viii) ½ tsp baking powder; (ix) ¼ tsp baking soda; and (x) 1 bag Lily's Sweets Semi-Sweet Chocolate Chips or Milk Chocolate Baking Chips. […] Five (5) people were brought in to compare batches with and without sodium gluconate.
smiles,measurement,setting,value
O=C([O-])[C@H](O)[C@@H](O)[C@H](O)[C@H](O)CO.[Na+] [sodium gluconate],bitterness reduction of caffeine samples,"[1]; caffeine solutions w/v in deionized water, 21° C., 6 trained panelists in duplicate, 0 to 15 point Spectrum intensity scale, FIG. 2",significant bitterness reduction
same,nature of bitterness reduction as a function of masking agent dose,"[1]; percent bitterness vs masking agent dose, FIG. 3",linear
same,coffee sample chosen by the panel as less bitter,[2],"less bitter, smoother taste"
same,participants' preference between cookie batches with and without sodium gluconate,[3],All 5 participants preferred
